Experimental findings from patent EP0603240B1, “SAFENING HERBICIDAL PYRAZOLYLSULFONYLUREAS” (priority 1991, dated 1993) are described below.

Holding throughout (format): in vivo
In assay [1] the test system is corn. As to the kind of experiment: Example 21, Procedure II: Herbicide No. 1 + SUTAN PLUS (butylate + antidote) with antidotes. On the procedure: (§1) Containers were filled and compacted with a fumigated silt loam top soil to a depth of about 1.3 cm from the top of the container. A first container was designated as an untreated control, a second container was designated as a herbicide control, and a third container was designated as a herbicide + antidote test container. Each of the containers was seeded with a crop species. A measured amount of herbicide dispersed or dissolved in acetone was applied to a measured quantity of soil. To this same quantity of soil treated with herbicide, there was added a measured amount of antidote dispersed or dissolved in acetone. The quantity of soil treated with the herbicide and antidote was thoroughly mixed to incorporate the herbicide and antidote in the soil uniformly. The seed bed in the third container of soil was covered with the soil treated with the herbicide and antidote and the container was leveled. For each test series, the seed beds of the first and second containers were likewise covered by soil layers. the cover layer of the first container was not treated with herbicide or antidote.
(§2) The containers were then placed on a bench in a greenhouse and sub-irrigated as required for the duration of the test. […] Plant response is measured in terms of percent injury. Antidote efficacy is indicated as the difference in plant injury by the herbicide(s) without the antidote and with the antidote.
(§3) This procedure is the same as Procedure I, but modified in the manner that after incorporation of the chemicals (herbicide and antidote) the containers with the covered seedbed were treated with an initial overhead irrigation equivalent to 0.6 cm rainfall, then subsequently sub-irrigated as required on greenhouse benches.
(§4) In this example, tests were conducted as in the preceding Examples 18-20, except here the co-herbicidal component was SUTAN® PLUS, a commercial product comprising as the active herbicidal ingredient the compound butylate (Herbicide No. 10) and an antidote […] (Antidote No. 1). Again, the antidotal compounds herein were Nos. 1, 2, 7, 13 and 15. Procedure II was used.

Assay [2] deals with velvetleaf (Abutilon theophrasti). The assay is described as above. On the procedure: as §1, §2, §3
(§5) In the series of greenhouse tests described below, for routine screening purposes the herbicide/antidote compositions were tested in crop/weed combinations involving corn as the crop and either or both of the weeds barnyardgrass (Echinochloa crusgalli), a monocotyledonous weed, and velvetleaf (Abutilon theophrasti), a dicotyledonous weed. In the tables below, these weeds are indicated by the symbols "BYG" and "VL", respectively.
as §4

The test system of assay [3] is barnyardgrass (Echinochloa crusgalli). The description is as above. The method, then:
as §1, §2, §3, §5, §4

For assay [4], the system named is velvetleaf (Abutilon theophrasti). As to the kind of experiment: Example 19, Procedure II: Herbicide No. 1 + ERADICANE EXTRA with added antidotes. The method, then: as §1, §2, §3, §5
(§6) In the test reported in this example, the herbicidal composition was similar to that used in Example 16 in that Herbicide No. 1 was combined with EPTC (Herbicide No. 4) as a co-herbicide and the antidotes included Nos. 1, 2, 7, 13 and 15. However, in this test the EPTC was introduced as a formulation of ERADICANE (EPTC + the antidote R-25788, i.e., Antidote No. 1) at an application rate of 8.96 kg/ha. Thus, in this test two antidotes were present, viz. R-25788 and one of the auxilliary antidotes, No. 2, 13 and 15.
(§7) The test reported in this example was performed in the same manner and with the same antidotes used in Example 18, the only difference being the substitution of the commercial herbicidal product ERADICANE® EXTRA for ERADICANE®. ERADICANE EXTRA is a formulation containing both an antidote, i.e., R-29148 (Antidote No. 5 herein), and an extender, dietholate.

The test system of assay [5] is barnyardgrass (Echinochloa crusgalli). The assay is described as above. The method, then: as §1, §2, §3, §5, §6, §7
Assay [6] concerns corn. As to the kind of experiment: Example 6, Procedure II: Herbicide No. 1 + alachlor (No. 7) with antidotes. On the procedure: as §1, §2, §3
(§8) This example was designed to investigate the antidotal efficacy of a plurality of antidotal compounds against a composition comprising Herbicide No. 1 in combination with Herbicide No. 7 (alachlor). The antidotal compounds used herein were Nos. 1, 2, 7, 13 and 15.
(§9) In this example, Procedure II described above was followed. The data from the tests in this example is shown in Table 6 and represents averages of duplicate replications.

In assay [7] the test system is velvetleaf (Abutilon theophrasti). The assay is described as above. The method, then: as §1, §2, §3, §5, §8, §9
Assay [8] deals with barnyardgrass (Echinochloa crusgalli). Described as above. The method, then:
as §1, §2, §3, §5, §8, §9

The subject of assay [9] is corn. The assay is described as follows: Example 7, Procedure II: Herbicide No. 1 + metolachlor (No. 12) with antidotes. On the procedure: as §1, §2, §3, §9
(§10) The tests in this example followed the same procedure and antidotes used in Example 6. However, Herbicide No. 12 (metolachlor) was used as the co-herbicide with Herbicide No. 1.

The test system of assay [10] is velvetleaf (Abutilon theophrasti). The assay is described as above. On the procedure:
as §1, §2, §3, §5, §9, §10

Assay [11] concerns barnyardgrass (Echinochloa crusgalli). The description is as above. The method, then: as §1, §2, §3, §5, §9, §10
In assay [12] the test system is corn. The assay is described as follows: Example 8, Procedure II: Herbicide No. 1 + butachlor (No. 9) with antidotes. On the procedure: as §1, §2, §3
In this test, the efficacy of the same five antidotes used in Examples 6 and 7 was investigated in compositions comprising Herbicide No. 1 and as a co-herbicide, butachlor (Herbicide No. 9), active ingredient in MACHETE® herbicide, a leading commercial rice herbicide. The test procedure used in this example was the same as that in Examples 6 and 7.

Where [13] appears, read: Herbicide No.1 0.56 kg/ha + SUTAN + 8.96 kg/ha, no added antidote.
The mark [14] stands for this setting: Herbicide No.1 0.56 kg/ha alone.
Where [15] appears, read: Herbicide No.1 1.12 kg/ha + SUTAN + 8.96 kg/ha, no added antidote.
Where [16] appears, read: Herbicide No.1 1.12 kg/ha alone.
[17] abbreviates: Herbicide No.1 0.56 kg/ha + ERADICANE EXTRA 8.96 kg/ha, no added antidote.
Where [18] appears, read: Herbicide No.1 1.12 kg/ha + ERADICANE EXTRA 8.96 kg/ha, no added antidote.
Setting [19] is: Herbicide No.1 0.14 + No.7 4.48 kg/ha, no antidote.
The mark [20] stands for this setting: Herbicide No.1 0.14 kg/ha alone.
Setting [21] is: Herbicide No.1 0.56 + No.7 (alachlor) 4.48 kg/ha, no antidote, average of duplicates.
[22] abbreviates: Herbicide No.1 0.14 + No.12 3.36 kg/ha, no antidote.
[23] abbreviates: Herbicide No.1 0.14 + No.12 3.36 kg/ha, no antidote (second such line, r25).
Setting [24] is: Herbicide No.1 0.56 + No.12 3.36 kg/ha, no antidote (second such line, r24).
The mark [25] stands for this setting: Herbicide No.1 0.56 + No.12 (metolachlor) 3.36 kg/ha, no antidote.

With `COC(=O)c1c(Cl)nn(C)c1S(=O)(=O)NC(=O)Nc1nc(OC)cc(OC)n1` [No.1], the “% Injury Corn” value is 10% in the assay with corn [1] (setting [13]), 0% in the assay with corn [1] (setting [14]), 5% in the assay on corn [1] (setting [15]) and 30% in the assay with corn [1] (setting [16]). The “% Injury VL” value in assay [2] (setting [13]) is on record as 60%; in assay [2] (setting [14]) it was 50%; in [2] (setting [15]) it was 70%; in assay [2] (setting [16]) it was 65%; in [4] (setting [17]), 80%; in assay [4] (setting [14]), 50%. Besides, the results for the “% Injury VL” value in assay [4] (setting [18]) and in [4] (setting [16]) were 85% and 65%, respectively. Besides, the “% Injury BYG” value in [3] (setting [13]) stood at 20%; in assay [3] (setting [14]), 10%; in [3] (setting [15]) it was 50%; in [3] (setting [16]), 10%; in assay [5] (setting [17]) it was 95%; in assay [5] (setting [14]), 30%. Besides, the “% Injury BYG” value is reported as 95% in assay [5] (setting [18]) and 70% in assay [5] (setting [16]).
Take `COC(=O)c1c(Cl)nn(C)c1S(=O)(=O)NC(=O)Nc1nc(OC)cc(OC)n1` [Herbicide No. 1]: the “% Injury Corn” value with corn [6] (setting [19]) is recorded as 20%; with corn [6] (setting [20]), 5%; in the assay with corn [6] (setting [21]), 30%; in the assay on corn [6] (setting [14]) it was 25%; with corn [9] (setting [22]) it was 20%; with corn [9] (setting [23]), 0%. Also, the “% Injury Corn” value was found to be 10% with corn [9] (setting [24]); 30% with corn [9] (setting [25]); 25% in the assay on corn [12] (Herbicide No.1 0.14 + No.9 2.24 kg/ha, no antidote); 10% in the assay with corn [12] (setting [20]); 65% with corn [12] (Herbicide No.1 0.56 + No.9 (butachlor) 2.24 kg/ha, no antidote); 60% in the assay on corn [12] (setting [14]). Moreover, the “% Injury VL” value is listed as 70% in [7] (setting [19]); 40% in assay [7] (setting [20]); 85% in [7] (setting [21]); 60% in assay [7] (setting [14]); 70% in assay [10] (setting [22]); 60% in assay [10] (setting [23]). Moreover, the “% Injury VL” value is reported as 75% in assay [10] (setting [24]) and 85% in [10] (setting [25]). Moreover, the “% Injury BYG” value was 100% in assay [8] (setting [19]); 20% in assay [8] (setting [20]); 100% in assay [8] (setting [21]); 70% in assay [8] (setting [14]); 100% in assay [11] (setting [22]); 35% in assay [11] (setting [23]). Also, the results for the “% Injury BYG” value in assay [11] (setting [24]) and in [11] (setting [25]) were 75% and 100%, respectively.
With `CC1(C)OC(c2ccco2)CN1C(=O)C(Cl)Cl` (stereo not shown) [Antidote No. 15, Oxazolidine, 3-(dichloroacetyl)-5-(2-furanyl)-2,2-dimethyl], the “safening of corn, assessment in words” value in the assay on corn [12] (Herbicide Nos. 1 and 9, Table 8) is “best safening effect across all four treatments”.
